Assay results taken from US20130005019A1, “GENETICALLY ENCODED PHOTO CONTROL” (North Carolina State University, priority 2010, published 2013).
Where a name gives a salt, the structure may show the parent alone.

Legend:
[1] = tested on: MEK1
Protocol: ERK2 nucleocytoplasmic shuttling. (a) HEK293ET cells co-expressing C-MEK1-DD and EGFP-ERK2 were illuminated (2 s, 365 nm, 1 mW/cm^2), then 8 minutes after illumination, U0126 (10 μM) was added to block the activity of photoactivated C-MEK1-DD and unveil EGFP-ERK2 efflux from the nucleus. […] Scale bars represent 5 μm. (b) The graph presents the normalized F(n/c) as a function of time after illumination (mean±SD of ten representative cells). The arrow indicates the time when U0126 was added.
To unveil this compensating process and visualize ERK2 nuclear export, we induced EGFP-ERK2 nuclear translocation by C-MEK1-DD photoactivation, and then blocked MEK1-induced ERK2 nuclear translocation by addition of the MEK1 inhibitor U0126.
Live cell imaging—Live cells grown in μ-Dish (Ibidi) were imaged at room temperature with an inverted Zeiss LSM 710 Laser Scanning Microscope equipped with a Plan Apochromat 63×/1.4 oil immersion objective. […] The mean nuclear (Fn) and cytoplasmic (Fc) fluorescence intensities were quantified using ImageJ software to enable the F(n/c) ratio to be determined according to the formula: F(n/c)=(Fn−Fb)/(Fc−Fb), where Fb is the mean background fluorescence intensity.

[2] = tested on: MEK1; settings: C-MEK1-ΔN cells, 10 μM U0126 for 30 min before illumination
Protocol: (a) HEK293ET cells co-transfected with plasmids encoding PCKRS, pyrrolysyl tRNACUA, C-MEK1-ΔN-HA and EGFP-ERK2 (either TEY, lanes 7 and 8; or AAA, lanes 9 and 10) were grown in medium supplemented with 2 mM of amino acid 1 (lanes 8 and 10) or without (lanes 7 and 9) for 24 h. […] (b) HEK293ET cells co-transfected with plasmids encoding PCKRS, pyrrolysyl tRNACUA, EGFP-ERK2 and either A-MEK1-ΔN-HA (lane 2), or D-MEK1-ΔN-HA (lanes 3-6), or C-MEK1-ΔN-HA (lanes 7-10) were grown in medium supplemented with 2 mM of 1 and 0.1% FBS for 24 h. Cells expressing D-MEK1-ΔN-HA and C-MEK1-ΔN-HA were illuminated with a 365 nm LED lamp for 60 s. Cells were lysed 1, 10 and 60 min after illumination. (c) HEK293ET cells co-transfected with plasmids encoding PCKRS, pyrrolysyl tRNACUA, EGFP-ERK2 and either A-MEK1-ΔN-HA (lane 2), or D-MEK1-ΔN-HA (lanes 3, 5, 6, 9, 10, 13, 14, 17, 18) or C-MEK1-ΔN-HA (lanes 4, 7, 8, 11, 12, 15, 16, 19, 20) were grown in medium supplemented with 2 mM of amino acid 1 and 0.1% FBS for 24 h. […]
Immunoblotting—Cells were washed with ice-cold phosphate buffer saline (PBS), then lysed with ice-cold universal lysis buffer (Roche) supplemented with protease inhibitors cocktail (Roche), 1 mM sodium vanadate, 5 mM sodium fluoride and 10 mM EDTA. Samples were resolved by SDS-PAGE and analyzed by immunoblotting with appropriate antibodies after transferring to nitrocellulose membranes.

[3] = Decaging of myoglobin containing 1 by 365 nm photolysis, ESI-MS; type: physicochemical; settings: myoglobin containing 1, in vitro
Protocol: FIG. 3—A. anti His-tag immunoblot of cell extracts from E. coli cells expressing PCKRS/PyltRNACUA and myoglobin with an amber codon at position 4 (pMyo4TAGHis6) in the presence or absence of 1 mM photocaged lysine 1. B. Coomassie stained gel of Ni-NTA purified sfGFP-his6 from cells containing either the MbPylRS/PyltRNACUA pair and grown with ε-Boc-lysine (BocK) (1 mM), or the PCKRS/PyltRNACUA pair and grown with 1 (5 mM). The unnatural amino acid was introduced into sfGFP in response to an amber codon at position 145. […] C. […] A second peak corresponding to myoglobin with a free lysine is also detected (peak B; obtained mass 18396 Da, expected mass 18395.7 Da). […] D. MS/MS fragmentation of tryptic peptide derived from sfGFP(145-1) (the peptide sequence is shown above the spectrum; MH^+ peptide mass 2145.972 Da). […]
Protein total mass was determined on an LCT time-of-flight mass spectrometer with electrospray ionization (ESI, Micromass). […] Theoretical masses of wild-type proteins were calculated using Protparam (http://us.expasy.org/tools/protparam.html), and theoretical masses for unnatural amino acid containing proteins were adjusted manually.
For the analysis of the uncaging process, purified myoglobin was photolysed at 365 nm with a high power LED source module at 365 nm (Black-led-365, Prizmatix). Protein total mass was then determined as described above.

[4] = tested on: HEK293 cells; experiment: Amber suppression of mCherry-TAG-egfp-ha reporter by PCKRS/PyltRNACUA; type: cell-based, human; settings: PCKRS/PyltRNACUA pair, 1 mM, Western blot, versus hTyrtRNACUA
Protocol: Adherent human embryonic kidney (HEK)-293 cells were cultured at 37° C. in a 5% CO2 atmosphere in DMEM+GlutaMAX-1 medium (Gibco) supplemented with 10% FBS and 1× pen-strep solution. Cells were transiently transfected with Genejuice (Novagen) according to the manufacturer's protocol. Double transfections were performed using equal amount of both plasmids. Before transfection, medium was replaced by fresh antibiotic-free medium supplemented, when necessary, with the unnatural amino acid (see figure legends for concentrations). Cells were analyzed 24 h after transfection. For western blot analysis, cells were washed with cold PBS, then lysed with universal lysis buffer (Roche) at 4° C. for 10 min. Western Blots were performed using antibodies against HA-tag (Sigma), Flag-tag (Cell signaling), Ds-Red (Clontech) or p53 (Abcam).
For imaging cells expressing mCherry-TAG-EGFP-HA, cells were seeded and transfected in 24-well plates. Laser-scanning confocal microscopy was performed using a Bio-Rad Radiance 2100 system mounted on a Nikon Eclipse TE300 inverted microscope equipped with a Plan Fluor ELWD 20×/0.45 objective. Fluorescence emission was measured between 515-530 nm for EGFP (excitation wavelength: 488 nm) and above 560 nm for mCherry (excitation wavelength: 543 nm).

[5] = tested on: sfGFP-his6; experiment: Expression of sfGFP-his6 with unnatural amino acid at amber codon 145; type: cell-based, E. coli; settings: PCKRS/PyltRNACUA pair, 1 (5 mM), amber codon at position 145
Protocol: FIG. 3—A. anti His-tag immunoblot of cell extracts from E. coli cells expressing PCKRS/PyltRNACUA and myoglobin with an amber codon at position 4 (pMyo4TAGHis6) in the presence or absence of 1 mM photocaged lysine 1. B. Coomassie stained gel of Ni-NTA purified sfGFP-his6 from cells containing either the MbPylRS/PyltRNACUA pair and grown with ε-Boc-lysine (BocK) (1 mM), or the PCKRS/PyltRNACUA pair and grown with 1 (5 mM). The unnatural amino acid was introduced into sfGFP in response to an amber codon at position 145. […] C. […] A second peak corresponding to myoglobin with a free lysine is also detected (peak B; obtained mass 18396 Da, expected mass 18395.7 Da). […] D. MS/MS fragmentation of tryptic peptide derived from sfGFP(145-1) (the peptide sequence is shown above the spectrum; MH^+ peptide mass 2145.972 Da). The spectrum confirms the incorporation of 1 at codon 145. The fragmentation sites are illustrated above the spectrum. […] E. ESI-MS analysis of myoglobin produced by PCKRS/PyltRNACUA (with 2 mM 1) after photolysis for 0 min, 1 min and 5 min with 365 nm light (A: caged protein mass 18633.0±1.8 Da, expected mass 18631.7 Da; B: uncaged protein mass 18395.4±0.7 Da, expected mass 18395.7).
To express myoglobin with an incorporated unnatural amino acid, we transformed E. coli DH10B cells with pBKamp-PCKRS and pMyo4TAGPylT-his6. […]

[6] = tested on: HEK293 cells; experiment: Photo-control of p53-EGFP nuclear import, live cell imaging; type: cell-based, human; settings: photolysis 5 s, 365 nm, 1.2 mW/cm^2; amino acid at position 305 of p53
Protocol: Fluorescence confocal micrographs showing the cellular localization of the EGFP fusions of wild-type p53, p53-K305A. D. Confocal micrographs showing the cellular localization of the EGFP fusions before and 50 min after photolysis (5 s; 365 nm; 1.2 mW/cm^2).
For live cell imaging, cells were seeded and transfected in μ-Dish (Ibidi). Live cells were imaged at room temperature with a Zeiss LSM 710 Laser Scanning Microscope equipped with a Plan Apochromat 63×/1.4 oil immersion objective. […] The mean nuclear (Fn) and cytoplasmic (Fc) fluorescence intensities were quantified using ImageJ software to enable the F(n/c) ratio to be determined according to the formula: F(n/c)=(Fn−Fb)/(Fc−Fb), where Fb is the mean background fluorescence intensity.

[7] = tested on: MAP kinase pathway; experiment: EGFP-ERK2 nuclear translocation upon EGF stimulation; type: cell-based, human; settings: wild-type MEK1
Protocol: FIG. 16 EGFP-ERK2 nuclear translocation upon EGF stimulation. (a) Montage showing EGFP-ERK2 sub-cellular fluorescence at different time points after activation of co-expressed wt-MEK1 by addition of 100 ng/ml EGF. Scale bars represent 5 μm.
When cells expressing wild-type MEK1 and EGFP-ERK2 are stimulated with 100 ng/ml of epidermal growth factor (EGF) the entire MAP kinase pathway is activated and EGFP-ERK2 is translocated to the nucleus. […] We observe substantial cell-to-cell variability in both the t1/2 for import and the maximal ratio of nuclear to cytoplasmic EGFP-ERK2, and, as previously reported (Cohen-Saidon et al., 2009), we observe less variability in the timing of nuclear import than in the fraction of ERK2 in the nucleus following stimulation (Cohen-Saidon et al., 2009) (FIG. 16c,d). The nuclear accumulation of EGFP-ERK2 peaks and then dissipates to pre-stimulus levels, a well known effect in cellular systems known as exact adaptation (Cohen-Saidon et al., 2009). This effect is not understood in molecular detail for EGF signalling, but must involve cellular processes that compensate for EGF stimulation at some—as yet undefined—point or points in the pathway. […]

[8] = tested on: EGFP-ERK2; experiment: EGFP-ERK2 nuclear translocation upon photo-activation of caged MEK1, live cell imaging; type: cell-based, human; settings: resting cells co-expressing EGFP-ERK2, illuminated
Protocol: Cell culture and transfection—Human embryonic kidney 293ET cells were grown at 37° C. in 5% CO2 atmosphere in DMEM+GlutaMAX-1 medium (Gibco) supplemented with 10% fetal bovine serum (FBS) and 1× pen-strep solution for 24 hours before transfection. Cells were transiently transfected with Genejuice (Novagen) according to the manufacturer's protocol. Cells were serum-starved (DMEM with 0.1% FBS) and grown with 2 mM of the photocaged lysine 1 for 24 h before analysis. Growth medium was replaced with fresh 1-free DMEM supplemented with 0.1% FBS before photo-activation experiments.

[9] = tested on: EGFP-ERK2 and endogenous ERK1/2; experiment: Immunoblot of ERK, p90RSK and Elk-1 phosphorylation upon photo-activation of caged MEK1; type: cell-based, human
From the text: MEK1 is highly specific for the downstream extracellular signal-regulated protein kinases ERK1 and ERK2, and has no other known substrates (Shaul and Seger, 2007). MEK1 phosphorylates two regulatory residues in ERK1/2, a threonine and a tyrosine, both part of a conserved Thr-Glu-Tyr (TEY) motif (Payne et al., 1991). To verify that the introduction of the photocaged lysine 1 prevents kinase activity, C-MEK1-ΔN was co-expressed with ERK2 fused to an enhanced green fluorescence protein (EGFP-ERK2) in resting HEK293ET cells.
To activate C-MEK1-ΔN we illuminated cells producing the protein for one minute using a 365 nm light-emitting diode (LED) lamp placed underneath the culture plate. This method allows us to illuminate a sufficient number of cells for western blot analysis with monochromatic light that avoids sample heating. […] We observed more phosphorylated EGFP-ERK2 than phosphorylated endogenous ERK1/2. This is consistent with the fact that only a subset of cells contain EGFP-ERK2 and C-MEK1-ΔN, via transfection, while essentially all cells contain endogenous ERK1/2. […] EGFP-ERK2 levels in transfected cells are lower-than or equal to that of the endogenous ERKs. […]

Question: With `N#CC(=C(/N)Sc1ccccc1N)/C(C#N)=C(\N)Sc1ccccc1N` [U0126] as the molecule, how does the “t1/2 of loss of EGFP nuclear fluorescence” value ([1]; 10 μM added 8 min after C-MEK1-DD photoactivation) read?
Answer: < 3 min

Question: And the “effect on EGFP-ERK2 nuclear accumulation” value ([1]; 10 μM added before illumination, C-MEK1-DD cells)?
Answer: significantly blocked nuclear accumulation

Question: What about the “increase of endogenous phosphorylated p90RSK and Elk-1 after illumination” value [2] of the same molecule?
Answer: not observed

Question: Which results are given for `CC(OC(=O)NCCCC[C@H](N)C(=O)O)c1cc2c(cc1[N+](=O)[O-])OCO2` (stereo partly drawn) [compound 1, (2S)-2-Amino-6-{([1-(6-nitrobenzo[d][1,3]dioxol-5-yl)ethoxy]carbonylamino}hexanoic acid TFA salt]?
Answer: decaging upon irradiation with 365 nm light [3]: efficiently decaged; efficiency of incorporation [4]: comparable to the efficiency of incorporation of tyrosine; yield of sfGFP-his6 obtained by incorporation [5]: 1 mg/L

Question: With `N[C@@H](Cc1ccc(O)cc1)C(=O)O` [tyrosine] as the molecule, how does the “p53 localization following photolysis” value [6] read?
Answer: did not localize to the nucleus

Question: Which “lag phase prior to rapid nuclear accumulation of EGFP-ERK2” value ([7]; 100 ng/ml EGF) does the source give for “EGF: Recombinant human epidermal growth factor, purchased from Gibco” here?
Answer: 3 min

Question: And the “t1/2 of EGFP-ERK2 nuclear translocation” value ([7]; EGF-stimulated activation of the whole pathway, 100 ng/ml)?
Answer: 4.5 min

Question: For “wt-MEK1: wild-type MEK1 [reference compound]”, which “EGFP-ERK2 nuclear translocation upon illumination” value [8] is on record?
Answer: no nuclear translocation was observed

B1: D-MEK1-DD: catalytically dead MEK1 mutant with S218D, S222D and K97M (protein, UniProt Q02750 1-393, looked up, variant S218D S222D K97M)
Dual specificity …: MPKKKPTPIQLNPAPDGSAVNGTSSAETNLEALQKKLEELELDEQQRKRLEAFLTQKQKVGELKDDDFEKISELGAGNGGVVFKVSHKPSGLVMARMLIHLEIKPAIRNQIIRELQVLHECNSPYIVGFYGAFYSDGEISICMEHMDGGSLDQVLKKAGRIPEQILGKVSIAVIKGLTYLREKHKIMHRDVKPSNILVNSRGEIKLCDFGVSGQLIDDMANDFVGTRSYMSPERLQGTHYSVQSDIWSMGLSLVEMAVGRYPIPPPDAKELELMFGCQVEGDAAETPPRPRTPGRPLSSYGMDSRPPMAIFELLDYIVNEPPPKLPSGVFSLEFQDFVNKCLIKNPAERADLKQLMVHAFIKRSDAEEVDFAGWLCSTIGLNQPSTPTHAAGV
modifications: HA tag
notes: catalytically dead MEK1 mutant with S218D, S222D and K97M
Question: With B1 as the molecule, how does the “EGFP-ERK2 nuclear translocation upon illumination” value [8] read?
Answer: no nuclear translocation was observed

B2: D-MEK1-ΔN: dead MEK1 with deletion Δ30-49 and mutation K97M (protein, UniProt Q02750 1-393, looked up, variant del30-49 K97M)
Dual specificity …: MPKKKPTPIQLNPAPDGSAVNGTSSAETNLEAFLTQKQKVGELKDDDFEKISELGAGNGGVVFKVSHKPSGLVMARMLIHLEIKPAIRNQIIRELQVLHECNSPYIVGFYGAFYSDGEISICMEHMDGGSLDQVLKKAGRIPEQILGKVSIAVIKGLTYLREKHKIMHRDVKPSNILVNSRGEIKLCDFGVSGQLIDSMANSFVGTRSYMSPERLQGTHYSVQSDIWSMGLSLVEMAVGRYPIPPPDAKELELMFGCQVEGDAAETPPRPRTPGRPLSSYGMDSRPPMAIFELLDYIVNEPPPKLPSGVFSLEFQDFVNKCLIKNPAERADLKQLMVHAFIKRSDAEEVDFAGWLCSTIGLNQPSTPTHAAGV
modifications: HA tag
notes: dead MEK1 with deletion Δ30-49 and mutation K97M
Question: What does the source list for B2?
Answer: phosphorylation of EGFP-ERK2 or endogenous ERK1/2 after illumination ([9]; 365 nm LED illumination): no detectable phosphorylation; endogenous phosphorylated p90RSK and Elk-1 after illumination ([9]; resting cells co-expressing EGFP-ERK2, 60 s 365 nm): not observed
